# Results from EP0043274A2, “Antithrombotic treatment” (priority 1980, dated 1982).
# Where “and” joins values, the source holds several entries; their conditions need not be identical. Equal values may be shown once. Read-outs that look alike come from different tables or passages of the source.
# Legend:
# [1] = system: thrombus formation in the jugular vein; test: I 125 fibrinogen technique, damaged jugular vein (venous thrombosis), continuous infusion; format: in vivo, rabbits; conditions: for radioactivity (I 125 fibrinogen) in damaged jugular vein of saline control rabbit relative to treated rabbit / thrombus formation in the jugular vein (conclusion in words): continuous infusion for five hours; for mortality of infused rabbits: continuous infusion
# Procedure: The anti venous thrombotic effect of sodium bisulfite is evaluated in rabbits by using I ^125 fibrinogen technique as described in an article in "Archives of Surgery" Vol. 104, pg. 152 (1972).
# The rabbit was continuously infused with aqueous sodium bisulfite solution at the rate of […]. (5.154 gram per hour) (animal body weight 2.3 kg) for a time of five hours. After 5 hours, the animal was sacrificed and the radioactive fibrinogen accumulated in the damaged jugular vein was determined. The radioactivity on the contra-lateral (undamaged) jugular vein was also determined to serve as a control. Concurrently, another rabbit had experienced the same procedure but received only a standard sodium chloride solution as a control. The rabbit from the normal saline solution has seven times as much radioactivity as his counterpart infused with sodium bisulfite.
# Two jugular veins on a normal, healthy rabbit are exposed and one of the veins is systematically damaged by clamping in two longitudinally spaced places. The rabbit is then continuously infused with aqueous sodium formaldehyde bisulfite at the rate of […] (5.154 gram per hour) (animal body weight 2.3 kg). The rabbit is then injected with fibrinogen labeled with I^125. After 5 hours, the damaged jugular vein is evaluated for radioacive count with a Geiger counter.
# This iodine 125 evaluation technique is described by Kakkar in Archieves of Surgery, Vol. 104, pg. 152 (1972) and by Kelton, J.G. et al, Journal of Clinical Investigation, Vol. 62, pgs. 892-895, (1978). […] Other rabbits, similarly evaluated, died, apparently because of overdose by the infustion technique.
# [2] = target: T1, F XII (Homo sapiens, UniProt P00748); test: Coagulation factor assay (Biggs): Factor XII; format: biochemical; conditions: for inhibition of coagulation factor XII: in vitro; for F XII (%): U.S.P. grade, control 86
# T1 construct: from tissue; host or cells: human plasma
# T1 sequence (P00748 20-615): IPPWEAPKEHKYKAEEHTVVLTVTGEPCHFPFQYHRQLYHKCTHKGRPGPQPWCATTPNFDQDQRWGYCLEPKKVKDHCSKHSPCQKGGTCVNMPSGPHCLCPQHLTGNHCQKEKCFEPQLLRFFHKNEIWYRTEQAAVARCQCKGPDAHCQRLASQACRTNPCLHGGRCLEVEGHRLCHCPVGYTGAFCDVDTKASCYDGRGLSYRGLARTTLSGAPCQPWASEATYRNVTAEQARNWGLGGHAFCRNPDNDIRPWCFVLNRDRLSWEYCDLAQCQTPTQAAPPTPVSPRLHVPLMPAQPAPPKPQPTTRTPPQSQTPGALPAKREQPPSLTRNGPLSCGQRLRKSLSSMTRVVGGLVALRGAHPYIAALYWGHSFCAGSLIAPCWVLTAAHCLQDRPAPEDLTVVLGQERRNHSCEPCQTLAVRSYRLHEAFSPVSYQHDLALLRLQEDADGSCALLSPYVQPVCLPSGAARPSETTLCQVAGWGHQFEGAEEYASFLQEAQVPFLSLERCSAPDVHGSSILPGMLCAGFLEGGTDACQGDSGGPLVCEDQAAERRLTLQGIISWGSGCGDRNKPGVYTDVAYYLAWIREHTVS
# Procedure: (§1) The effect of U.S.P. grade sodium bisulfite on blood coagulation factors is evaluated by standard procedures (Biggs) and the results are shown in Table III below.
# (§2) References for PT, PTT, and assays of all the coagulation factors can be found in a standard textbook, entitled "Human Blood Coagulation, Haemostasis and Thrombosis", edited by Rosemary Biggs, published by Blackwell Scientific Publications, Oxford, England (2nd edition), pages 670-705, 1976.
# [3] = target: T2, F VII (Homo sapiens, UniProt P08709); test: Coagulation factor assay (Biggs): Factor VII; format: biochemical; conditions: for inhibition of coagulation factor VII: in vitro; for F VII (%): U.S.P. grade, control 73
# T2 construct: from tissue; host or cells: human plasma
# T2 sequence (P08709 61-466): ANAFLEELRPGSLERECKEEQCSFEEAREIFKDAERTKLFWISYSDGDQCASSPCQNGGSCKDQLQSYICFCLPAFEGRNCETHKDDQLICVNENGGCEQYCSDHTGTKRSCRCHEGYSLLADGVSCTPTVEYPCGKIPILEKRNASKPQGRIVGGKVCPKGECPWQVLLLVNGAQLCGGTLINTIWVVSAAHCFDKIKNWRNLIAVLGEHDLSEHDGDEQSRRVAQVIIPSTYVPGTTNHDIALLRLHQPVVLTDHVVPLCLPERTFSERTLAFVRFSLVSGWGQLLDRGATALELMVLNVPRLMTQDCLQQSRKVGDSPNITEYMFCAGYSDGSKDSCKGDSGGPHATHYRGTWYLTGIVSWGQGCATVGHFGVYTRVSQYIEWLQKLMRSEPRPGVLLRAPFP
# Procedure: as §1, §2
# [4] = target: T3, F IX (Homo sapiens, UniProt P00740); test: Coagulation factor assay (Biggs): Factor IX; format: biochemical; conditions: for inhibition of coagulation factor IX: in vitro; for Factor IX (%): single experiment, control 50; for F IX (%): U.S.P. grade, control 66
# T3 construct: from tissue; host or cells: human plasma
# Procedure: as §1, §2
# [5] = system: human plasma; format: biochemical
# [6] = target: T4, F XI (Homo sapiens, UniProt P03951); test: Coagulation factor assay (Biggs): Factor XI; format: biochemical; conditions: for inhibition of coagulation factor XI: in vitro; for F XI (%): U.S.P. grade, control 117
# T4 construct: from tissue; host or cells: human plasma
# Procedure: as §1, §2
# [7] = system: human plasma; format: biochemical; remark: listed apart in the source
# [8] = system: rabbit plasma; test: Blood coagulation tests (PT, PTT, coagulation factors) in vitro; format: biochemical; conditions: for PT and PTT (effect in words): rabbit plasma in vitro, 0.5 mg/ml
# Text: The alkali metalbisulfites, sodium and potassium, and ammonium bisulfite are found to prolong PT and PTT in a dose-related fashion.
# The Solution I is found to prolong PT and PTT in a dose related fashion. […] The agent is active in inhibiting various coagulation factors, including factors VII, IX, X, XI, and XII.
# [9] = target: T5, F X (Homo sapiens, UniProt P00742); test: Coagulation factor assay (Biggs): Factor X; format: biochemical; conditions: for inhibition of coagulation factor X: in vitro; for F X (%): U.S.P. grade, control 78
# T5 construct: from tissue; host or cells: human plasma
# Procedure: as §1, §2
# T4 sequence (P03951 19-625): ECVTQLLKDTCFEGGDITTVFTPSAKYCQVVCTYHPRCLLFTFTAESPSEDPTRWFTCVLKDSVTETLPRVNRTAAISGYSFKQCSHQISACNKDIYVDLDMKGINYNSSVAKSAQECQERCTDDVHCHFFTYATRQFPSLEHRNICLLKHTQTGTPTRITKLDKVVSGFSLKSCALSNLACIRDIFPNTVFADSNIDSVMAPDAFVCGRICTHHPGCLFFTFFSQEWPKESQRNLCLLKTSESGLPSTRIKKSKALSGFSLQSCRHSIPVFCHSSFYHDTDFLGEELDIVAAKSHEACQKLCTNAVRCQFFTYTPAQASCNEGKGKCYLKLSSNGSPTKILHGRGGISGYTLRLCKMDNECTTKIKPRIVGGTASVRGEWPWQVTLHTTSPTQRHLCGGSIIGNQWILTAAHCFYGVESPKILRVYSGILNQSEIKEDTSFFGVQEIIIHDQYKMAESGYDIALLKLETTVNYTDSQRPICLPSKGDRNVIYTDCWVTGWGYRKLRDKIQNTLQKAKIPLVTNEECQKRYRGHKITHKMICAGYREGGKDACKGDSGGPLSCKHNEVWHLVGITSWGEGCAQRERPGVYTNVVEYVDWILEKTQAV
# T5 sequence (P00742 41-488): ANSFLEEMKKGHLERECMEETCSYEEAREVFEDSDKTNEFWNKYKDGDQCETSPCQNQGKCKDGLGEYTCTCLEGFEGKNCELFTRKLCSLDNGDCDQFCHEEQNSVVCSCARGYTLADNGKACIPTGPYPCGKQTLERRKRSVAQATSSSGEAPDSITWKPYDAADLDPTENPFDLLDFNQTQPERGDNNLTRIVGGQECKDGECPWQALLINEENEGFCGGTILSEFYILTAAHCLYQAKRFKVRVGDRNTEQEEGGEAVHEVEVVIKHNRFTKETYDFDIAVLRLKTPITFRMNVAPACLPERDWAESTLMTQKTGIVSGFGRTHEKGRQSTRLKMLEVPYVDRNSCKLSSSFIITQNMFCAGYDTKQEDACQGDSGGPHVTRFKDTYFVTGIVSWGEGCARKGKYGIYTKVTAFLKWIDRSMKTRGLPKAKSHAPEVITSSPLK
# T3 sequence (P00740 47-461): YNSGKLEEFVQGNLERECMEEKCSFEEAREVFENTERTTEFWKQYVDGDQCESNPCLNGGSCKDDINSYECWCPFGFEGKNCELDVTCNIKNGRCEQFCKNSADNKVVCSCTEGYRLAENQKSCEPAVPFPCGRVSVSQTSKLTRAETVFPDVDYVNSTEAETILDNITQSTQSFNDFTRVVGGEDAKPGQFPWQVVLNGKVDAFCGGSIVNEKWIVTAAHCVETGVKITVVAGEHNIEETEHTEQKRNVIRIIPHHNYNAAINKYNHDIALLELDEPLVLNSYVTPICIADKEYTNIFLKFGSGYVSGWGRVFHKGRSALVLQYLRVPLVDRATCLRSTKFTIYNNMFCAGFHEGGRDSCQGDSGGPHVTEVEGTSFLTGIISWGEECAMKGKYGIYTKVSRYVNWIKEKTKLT
compound,measurement,setting,value
"CCN(CC)CC.O=S(O)O [TRIETHYL AMINE BISULFITE, triethyl amine bisulfite]",radioactivity (I 125 fibrinogen) in damaged jugular vein of saline control rabbit relative to treated rabbit,[1],seven times
same,thrombus formation in the jugular vein (conclusion in words),[1],definite positive antithrombotic effect
same,inhibition of coagulation factor XII,[2],active
same,inhibition of coagulation factor VII,[3],active
same,inhibition of coagulation factor IX,[4],active
same,Factor IX (%),[4],14%
same,MEAN LSD (PTT),[5],73.1 ± 8.3 s
same,PTT (effect in words),[5],significantly prolong
same,PTT(Sec) […]. 1,[5],24.7 s
same,PTT(Sec) […]. 2,[5],86.3 s
same,PTT(Sec) […]. 3,[5],64.2 s
same,PTT(Sec) […]. 4,[5],71.2 s
same,PTT(Sec) […].5,[5],68.9 s
same,inhibition of coagulation factor XI,[6],active
same,MEAN LSD (PT),[7],21.3 ± 3.0 s
same,PT (effect in words),[7],significantly prolong
same,PT(Sec) […]. 1,[7],23.3 s
same,PT(Sec) […]. 2,[7],25.3 s
same,PT(Sec) […]. 3,[7],18.5 s
same,PT(Sec) […]. 4,[7],18.9 s
same,PT(Sec) […].5,[7],20.4 s
same,PT and PTT (effect in words),[8],significantly prolong
same,inhibition of coagulation factor X,[9],active
C[N+](C)(C)C [Tetramethyl-ammonium bisulfite],mortality of infused rabbits,[1],death of the rabbit
same,inhibition of coagulation factor XII,[2],active
same,inhibition of coagulation factor VII,[3],active
same,inhibition of coagulation factor IX,[4],active
same,Factor IX (%),[4],12.5%
same,PTT (effect in words),"[5]; in vitro, 0.5 mg/ml",significantly prolong
same,inhibition of coagulation factor XI,[6],active
same,PT sec.,[7],21.7 s
same,PT (effect in words),"[7]; in vitro, 0.5 mg/ml",significantly prolong
same,PT and PTT (effect in words),[8],significantly prolong
same,inhibition of coagulation factor X,[9],active
Sodium bisulfite,mortality of infused rabbits,[1],died
same,radioactivity (I 125 fibrinogen) in damaged jugular vein of saline control rabbit relative to treated rabbit,[1],seven times
same,thrombus formation in the jugular vein (conclusion in words),[1],definite positive effect of decreasing thrombus formation
same,F XII (%),[2]; 0.01 mg/ml,94%
same,F XII (%),[2]; 0.05 mg/ml,87%
same,F XII (%),[2]; 0.1 mg/ml,79%
same,effect on Factor XII,[2]; 0.5 mg per ml,significant inhibitory effect
same,F XII (%),[2]; 0.5 mg/ml,17%
same,F XII (%),[2]; 1.0 mg/ml,3%
same,F XII (%),[2]; 5.0 mg/ml,<1%
same,F VII (%),[3]; 0.01 mg/ml,67%
same,F VII (%),[3]; 0.05 mg/ml,57%
same,F VII (%),[3]; 0.1 mg/ml,51%
same,effect on Factor VII,[3]; 0.5 mg per ml,significant inhibitory effect
same,F VII (%),[3]; 0.5 mg/ml,23%
same,F VII (%),[3]; 1.0 mg/ml,8%
same,F VII (%),[3]; 5.0 mg/ml,1%
same,F IX (%),[4]; 0.01 mg/ml,60%
same,F IX (%),[4]; 0.05 mg/ml,52%
same,F IX (%),[4]; 0.1 mg/ml,56%
same,effect on Factor IX,[4]; 0.5 mg per ml,significant inhibitory effect
same,F IX (%),[4]; 0.5 mg/ml,4%
same,F IX (%),[4]; 1.0 mg/ml,3%
same,F IX (%),[4]; 5.0 mg/ml,<1%
same,PTT(seconds) Exp. 1 A,[5],128.2 s
same,PTT,"[5]; 0.01 mg/ml, U.S.P. grade, control 12.20",12.33 s
same,PTT,"[5]; 0.05 mg/ml, U.S.P. grade, control 12.20",12.43 s
same,PTT,"[5]; 0.1 mg/ml, U.S.P. grade, control 12.20",12.85 s
same,PTT,"[5]; 0.5 mg/ml, U.S.P. grade, control 12.20",15.43 s
same,PTT,"[5]; 0.5 mg/ml, two different days, control 42.6 / 42.10",120.35 s
same,PTT,"[5]; 1.0 mg/ml, U.S.P. grade, control 12.20",22.63 s
same,PTT,"[5]; 5.0 mg/ml, U.S.P. grade, control 12.20",>150 s
same,PTT(seconds) Exp. 2 A,"[5]; Active Agent 0.5/ml, test sequences A and B, control 50.5 (A), 44.5 (B)",162.6 s and 121.9 s
same,PTT,"[5]; coded agents 0.5mg/ml, […], control 43.38",114.80 s
same,PTT (effect in words),"[5]; in vitro, 0.5 mg/ml",significantly prolong
same,F XI (%),[6]; 0.01 mg/ml,98%
same,F XI (%),[6]; 0.05 mg/ml,81%
same,F XI (%),[6]; 0.1 mg/ml,58%
same,effect on Factor XI,[6]; 0.5 mg per ml,significant inhibitory effect
same,F XI (%),[6]; 0.5 mg/ml,27%
same,F XI (%),[6]; 1.0 mg/ml,4%
same,F XI (%),[6]; 5.0 mg/ml,<1%
same,PT,[7],22.42 s
same,PT(seconds) Exp. 1 A,[7],25.5 s and 22.1 s
same,PT(seconds) Exp. 2 A,[7],23.2 s
same,PT,"[7]; 0.01 mg/ml, U.S.P. grade, control 34.67",33.37 s
same,PT,"[7]; 0.05 mg/ml, U.S.P. grade, control 34.67",34.00 s
same,PT,"[7]; 0.1 mg/ml, U.S.P. grade, control 34.67",34.85 s
same,PT,"[7]; 0.5 mg/ml, U.S.P. grade, control 34.67",42.73 s
same,PT,"[7]; 1.0 mg/ml, U.S.P. grade, control 34.67",85.33 s
same,PT,"[7]; 5.0 mg/ml, U.S.P. grade, control 34.67",>150 s
same,PT,"[7]; coded agents 0.5mg/ml, […], control 12.92",23.06 s
same,PT (effect in words),"[7]; in vitro, 0.5 mg/ml",significantly prolong
same,PT and PTT (effect in words),[8],significantly prolong
same,blood coagulation factors,"[8]; rabbit plasma, compared with human plasma",not as sensitive
same,F X (%),[9]; 0.01 mg/ml,73%
same,F X (%),[9]; 0.05 mg/ml,68%
same,F X (%),[9]; 0.1 mg/ml,66%
same,effect on Factor X,[9]; 0.5 mg per ml,significant inhibitory effect
same,F X (%),[9]; 0.5 mg/ml,31%
same,F X (%),[9]; 1.0 mg/ml,11%
same,F X (%),[9]; 5.0 mg/ml,3%
